For the assay, the target named is T1, human CRTh2 (Homo sapiens, UniProt Q9Y5Y4).
T1 construct: expressed in transfected cells; host or cells: CHO.K1 (Chinese Hamster Ovary) cells, membrane preparation
T1 sequence (Q9Y5Y4 1-395): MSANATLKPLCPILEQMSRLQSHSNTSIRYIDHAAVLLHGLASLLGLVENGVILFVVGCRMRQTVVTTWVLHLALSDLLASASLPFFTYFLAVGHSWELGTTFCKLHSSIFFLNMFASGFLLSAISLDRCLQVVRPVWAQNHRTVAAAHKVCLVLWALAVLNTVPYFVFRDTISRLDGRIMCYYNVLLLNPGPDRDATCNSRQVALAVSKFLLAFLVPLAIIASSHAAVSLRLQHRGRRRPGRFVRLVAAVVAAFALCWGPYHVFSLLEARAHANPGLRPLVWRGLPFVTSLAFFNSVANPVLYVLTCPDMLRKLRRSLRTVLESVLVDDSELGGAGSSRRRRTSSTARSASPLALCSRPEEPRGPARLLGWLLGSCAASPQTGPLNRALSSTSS
The assay is described as follows: CRTh2 [3H]-PGD2 binding assay (called SPA binding assay; filtration binding protocol described). The conditions noted are these: competition with [3H]-PGD2 (2.5 nM), CHO.K1-CRTh2 membranes. The method, then:
The binding of CRTh2 modulators is determined using membranes prepared from human CRTh2-expressing Chinese Hamster Ovary cells (CHO.K1-CRTh2). To produce cell membranes CHO.K1-CRTh2 cells cultured in roller bottles are harvested using cell dissociation buffer (Invitrogen). The cells are pelleted by centrifugation (167 g, 5 min). The cell pellet is incubated in hypotonic buffer (15 mM Tris-OH, 2 mM MgCl2, 0.3 mM EDTA, 1 mM EGTA, 1× Complete™ tablet) at 4° C. for 30 min. At 4° C. cells are homogenized using a Polytron® (IKA Ultra Turrax T25) for 5 bursts of 1 second. The homogenate is centrifuged (Beckman Optima TM TL Ultracentrifuge, 48000 g, 30 min at 4° C.). […]
The binding of [^3H]-PGD2 (157 Ci/mmol) to CHO.K1-CRTh2 membranes is determined in the absence (total binding) and presence (non-specific binding) of unlabelled PGD2 (1 μM). […]
The plates are incubated at room temperature on a shaker for 1 hour, and then harvested (Tomtec Harvester 9600) onto GF/C filter plates using wash buffer (10 mM HEPES-KOH, pH 7.4). […] Plates are then counted using a Packard Top Count instrument, Plates are then read on the Packard Topcount with the 3H Scintillation program (1 min per well).
Ki (dissociation constant for the inhibition) values for the CRTh2 modulators are reported. Ki values are determined using Sigma Plot™ software, using the Cheng-Prussoff equation. […]

`Cc1c(CC(=O)O)c2cccnc2n1CCc1ccccc1` [Example 1, (2-Methyl-1-phenethyl-1H-pyrrolo[2,3-b]pyridine-3-yl)-acetic acid]: the Ki was found to be 716 nM.

One may read the Ki as a measure of affinity in units of concentration, obtained from inhibition or displacement. Read a high Ki as lower affinity.

(Values after US20080312229A1, “Organic Compounds” (Novartis AG, priority 2005, published 2008).)
